This is an account of results in patent US20230227449A1, “AMIDOPYRIMIDONE DERIVATIVES” (Hoffmann-La Roche Inc., priority 2020, published 2023).

Bounds are passed on as bounds.

The target in the assay is Recombinant human Mat2a (Homo sapiens, UniProt P31153). Description: Determination of Mat2A activity (384 well absorbance-based assay, Biomol Green). The format is biochemical. Particulars: 12.5 nM Mat2A, 100 μM ATP and Methionine, 2% DMSO, 120 minutes at RT, absorbance at 635 nm. As for the experimental part: Determination of Mat2A activity
Recombinant human Mat2a, sequence (P31153 whole entry): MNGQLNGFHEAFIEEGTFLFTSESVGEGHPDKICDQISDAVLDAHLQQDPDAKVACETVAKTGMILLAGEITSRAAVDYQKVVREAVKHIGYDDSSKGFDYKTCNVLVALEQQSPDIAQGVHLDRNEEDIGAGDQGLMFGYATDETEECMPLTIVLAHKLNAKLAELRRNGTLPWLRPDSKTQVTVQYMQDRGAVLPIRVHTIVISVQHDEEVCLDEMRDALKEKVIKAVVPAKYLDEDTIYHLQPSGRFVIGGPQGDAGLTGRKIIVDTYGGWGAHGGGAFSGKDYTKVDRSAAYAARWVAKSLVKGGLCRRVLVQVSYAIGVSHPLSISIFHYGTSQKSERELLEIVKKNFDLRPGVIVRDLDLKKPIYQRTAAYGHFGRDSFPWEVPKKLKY
Measurement of Mat2A inhibition is performed in 384 well format absorbance-based assay. Recombinant human Mat2a (12.5 nM) and serial diluted compounds in DMSO (range of concentrations from […] to 508 pM) or controls (DMSO) are incubated for 15 minutes at room temperature (RT) in assay buffer containing 50 mM HEPES pH 7.5, 50 mM KCl, 50 mM MgCl2, 0.01% Tween 20 and 10 mM DTT. The reaction is initiated by the addition of the combined substrates ATP and Methionine, each at a final concentration of 100 μM. Final assay condition are 12.5 nM Mat2A, 100 μM ATP and Methionine Substrates and 2% DMSO. After 120 minutes of incubation at RT, the reaction is stopped by the addition of Biomol Green. The absorbance signal is measured at λ=635 nm with a multiplate reader (BMG Pherastar reader or equivalent) after 30 min of equilibration at RT.
The IC50 is the midpoint of a concentration-inhibition curve. In the case of `Cc1ncccc1-n1c(=O)nc(N)c2ccc(C3COC3)cc21` [Example 22, 4-amino-1-(2-methylpyridin-3-yl)-7-(oxetan-3-yl)quinazolin-2(1H)-one], the IC50 turned out to be 21 nM.
As for `Cc1ccccc1-n1c(=O)nc(N)c2ccc(N3CC(F)(F)C3)nc21` [Example 5, 4-amino-7-(3,3-difluoroazetidin-1-yl)-1-(o-tolyl)pyrido[2,3-d]pyrimidin-2(1H)-one], the figure is 22 nM.
As for `Nc1nc(=O)n(-c2ccccc2OC(F)(F)F)c2nc(C3CC3)ccc12` [Example 110, 4-amino-7-cyclopropyl-1-[2-(trifluoromethoxy)phenyl]pyrido[2,3-d]pyrimidin-2-one], the figure is < 13 nM; as for `Cc1ncccc1-n1c(=O)nc(N)c2ccc(C3CCC3)nc21` [Example 53, 4-amino-7-cyclobutyl-1-(2-methyl-3-pyridyl)pyrido[2,3-d]pyrimidin-2-one], < 13 nM; as for `N#Cc1cccc(-n2c(=O)nc(N)c3ccc(C4CC4)nc32)c1Cl` [Example 143, 3-(4-amino-7-cyclopropyl-2-oxopyrido[2,3-d]pyrimidin-1 (2H)-yl)-2-chlorobenzonitrile], < 13 nM.
For the compound `Nc1nc(=O)n(-c2cccnc2Cl)c2nc(C3CC3)ccc12` (single isomer, unassigned) [Example 136, (−)-4-amino-1-(2-chloropyridin-3-yl)-7-cyclopropylpyrido[2,3-d]pyrimidin-2 (1H)-one], the IC50 turned out to be 150 nM.
As for `Cc1ccccc1-n1c(=O)[nH]c(=O)c2ccc(C3CC3)cc21` [Example 100, 7-cyclopropyl-1-(2-methylphenyl)quinazoline-2,4-dione], the figure is 350 nM.
For the compound `Cc1ccccc1-n1c(=O)nc(N)c2ccc(C3CC3)cc21` [Example 8, 4-amino-7-cyclopropyl-1-(o-tolyl)quinazolin-2 (1H)-one], the IC50 is < 13 nM.
The result for `Cc1ncccc1-n1c(=O)nc(N)c2ccc(C(F)(F)F)cc21` [Example 29, 4-amino-1-(2-methylpyridin-3-yl)-7-(trifluoromethyl)quinazolin-2-one] reads < 13 nM; that for `Cc1ncccc1-n1c(=O)nc(N)c2cc(Cl)c(C3CC3)nc21` [Example 18, 4-amino-6-chloro-7-cyclopropyl-1-(2-methylpyridin-3-yl)pyrido[2,3-d]pyrimidin-2(1H)-one], < 13 nM; that for `Nc1nc(=O)n([C@H]2CCCOC2)c2nc(C3CC3)ccc12` [Example 27, 4-amino-7-cyclopropyl-1-[(3S)-oxan-3-yl]pyrido[2,3-d]pyrimidin-2-one], 42 nM.
`Nc1nc(=O)n(-c2cccc3c2CCO3)c2cc(OC(F)(F)F)ccc12` [Example 160, 4-amino-1-(2,3-dihydro-1-benzofuran-4-yl)-7-(trifluoromethoxy)quinazolin-2-one]: the IC50 was found to be 18 nM.
On to `Nc1nc(=O)n(C2CCC(O)C2)c2nc(C3CC3)ccc12` (stereo not drawn) [Example 33, 4-amino-7-cyclopropyl-1-(3-hydroxycyclopentyl)pyrido[2,3-d]pyrimidin-2(1H)-one], for which the IC50 is < 13 nM.
As for `Nc1nc(=O)n(-c2cccc3c2CCO3)c2nc(C(F)(F)F)ccc12` [Example 162, 4-amino-1-(2,3-dihydrobenzofuran-4-yl)-7-(trifluoromethyl)pyrido[2,3-d]pyrimidin-2 (1H)-one], the figure is < 13 nM.
The result for `COc1ccccc1-n1c(=O)nc(N)c2ccc(C3CC3)nc21` [Example 2, 4-amino-7-cyclopropyl-1-(2-methoxyphenyl)pyrido[2,3-d]pyrimidin-2(1H)-one] reads < 13 nM; that for `Nc1nc(=O)n(-c2cc(F)ccc2F)c2nc(C3CC3)ccc12` [Example 154, 4-amino-7-cyclopropyl-1-(2,5-difluorophenyl)pyrido[2,3-d]pyrimidin-2 (1H)-one], 20 nM; that for `Nc1nc(=O)n(C2COCCOC2)c2nc(C3CC3)ccc12` [Example 107, 4-amino-7-cyclopropyl-1-(1,4-dioxepan-6-yl)pyrido[2,3-d]pyrimidin-2-one], 25 nM.
As for `Cc1ccccc1-n1c(=O)nc(N)c2ccc(C3CC3)nc21` [Example 1, 4-amino-7-cyclopropyl-1-(o-tolyl)pyrido[2,3-d]pyrimidin-2(1H)-one], the IC50 is < 13 nM.
As for `Cc1ncccc1-n1c(=O)nc(N)c2ccc(C3CCCC3)nc21` [Example 56, 4-amino-7-cyclopentyl-1-(2-methyl-3-pyridyl)pyrido[2,3-d]pyrimidin-2-one], the IC50 is < 13 nM.
The result for `N#Cc1ncccc1-n1c(=O)nc(N)c2ccc(C3CC3)nc21` [Example 11, 3-(4-amino-7-cyclopropyl-2-oxopyrido[2,3-d]pyrimidin-1(2H)-yl)picolinonitrile] reads < 13 nM.
As for `Nc1nc(=O)n(C2CCOC2)c2nc(C3CC3)ccc12` (stereo not drawn) [Example 6, 4-amino-7-cyclopropyl-1-(tetrahydrofuran-3-yl)pyrido[2,3-d]pyrimidin-2(1H)-one], the figure is 28 nM.
On to `Nc1nc(=O)n([C@H]2CCCOC23CC3)c2nc(C3CC3)ccc12` [Example 142, 4-amino-7-cyclopropyl-1-[(8S)-4-oxaspiro[2.5]octan-8-yl]pyrido[2,3-d]pyrimidin-2-one], for which the IC50 is < 13 nM.
As to `Nc1nc(=O)n(-c2ccc(F)c(F)c2)c2nc(C3CC3)ccc12` [Example 147, 4-amino-7-cyclopropyl-1-(3,4-difluorophenyl)pyrido[2,3-d]pyrimidin-2 (1H)-one], the IC50 was 31 nM.
As for `Cc1cccc(-n2c(=O)nc(N)c3ccc(OC(F)F)cc32)c1` [Example 134, 4-amino-7-(difluoromethoxy)-1-(m-tolyl)quinazolin-2 (1H)-one], the IC50 was determined as 20 nM.
For `Cn1nccc1-n1c(=O)nc(N)c2ccc(N3C[C@H]4CC[C@@H]3C4)nc21` (racemic) [Example 57, 4-amino-7-[(1SR,4RS)-3-azabicyclo[2.2.1]heptan-3-yl]-1-(2-methylpyrazol-3-yl)pyrido[2,3-d]pyrimidin-2-one], the IC50 was 150 nM.
As for `Cc1c(F)cccc1-n1c(=O)nc(N)c2ccc(C3CC3)nc21` (single isomer, unassigned) [Example 104, (−)-4-amino-7-cyclopropyl-1-(3-fluoro-2-methylphenyl)pyrido[2,3-d]pyrimidin-2 (1H)-one], the figure is 110 nM; as for `Cc1cccc(-n2c(=O)nc(N)c3ccc(C4CC4)nc32)c1` [Example 69, 4-amino-7-cyclopropyl-1-(m-tolyl)pyrido[2,3-d]pyrimidin-2(1H)-one], < 13 nM.
The result for `Cc1c(C#N)cccc1-n1c(=O)nc(N)c2ccc(OC(F)(F)F)cc21` [Example 158, 3-[4-amino-2-oxo-7-(trifluoromethoxy)quinazolin-1-yl]-2-methylbenzonitrile] reads 25 nM; that for `Cc1ncncc1-n1c(=O)nc(N)c2ccc(C3CC3)nc21` [Example 42, 4-amino-7-cyclopropyl-1-(4-methylpyrimidin-5-yl)pyrido[2,3-d]pyrimidin-2(1H)-one], < 13 nM; that for `CCn1nccc1-n1c(=O)nc(N)c2ccc(C3CC3)nc21` [Example 61, 4-amino-7-cyclopropyl-1-(1-ethyl-1H-pyrazol-5-yl)pyrido[2,3-d]pyrimidin-2(1H)-one], < 13 nM.
As for `Cc1ccccc1-n1c(=O)nc(N)c2cnc(C3CC3)nc21` [Example 96, 4-amino-7-cyclopropyl-1-(o-tolyl)pyrimido[4,5-d]pyrimidin-2 (1H)-one], the figure is < 13 nM.
`Cc1c(C#N)cccc1-n1c(=O)nc(N)c2ccc(C(F)(F)F)cc21` [Example 76, 3-(4-amino-2-oxo-7-(trifluoromethyl)quinazolin-1(2H)-yl)-2-methylbenzonitrile]: the 50% inhibitory concentration (IC50) is < 13 nM.
As for `Nc1nc(=O)n(-c2cccnc2Cl)c2cc(OC(F)F)ccc12` [Example 137, 4-amino-1-(2-chloropyridin-3-yl)-7-(difluoromethoxy)quinazolin-2 (1H)-one], the figure is < 13 nM.
As for `Cc1ncccc1-n1c(=O)nc(N)c2ccc(C(F)F)cc21` [Example 35, 4-amino-7-(difluoromethyl)-1-(2-methylpyridin-3-yl)quinazolin-2(1H)-one], the figure is < 13 nM; as for `Nc1nc(=O)n(-c2c(F)cccc2F)c2nc(C3CC3)ccc12` [Example 78, 4-amino-7-cyclopropyl-1-(2,6-difluorophenyl)pyrido[2,3-d]pyrimidin-2(1H)-one], < 13 nM.
The result for `Cc1ncccc1-n1c(=O)nc(N)c2ccc(C3CC3)cc21` [Example 86, 4-amino-7-cyclopropyl-1-(2-methylpyridin-3-yl)quinazolin-2 (1H)-one] reads < 13 nM; that for `Cc1cccc(-n2c(=O)nc(N)c3ccc(OC(F)F)cc32)c1F` [Example 133, 4-amino-7-(difluoromethoxy)-1-(2-fluoro-3-methylphenyl)quinazolin-2 (1H)-one], 26 nM.
Consider `Nc1nc(=O)n([C@@H]2CCCOC23CC3)c2nc(C3CC3)ccc12` [Example 141, 4-amino-7-cyclopropyl-1-[(8R)-4-oxaspiro[2.5]octan-8-yl]pyrido[2,3-d]pyrimidin-2-one], for which the IC50 is < 13 nM.
`Nc1nc(=O)n(-c2cccc3c2CCN3)c2nc(C3CC3)ccc12` [Example 157, 4-amino-7-cyclopropyl-1-(2,3-dihydro-1H-indol-4-yl)pyrido[2,3-d]pyrimidin-2-one]: the IC50 was 15 nM.
